Assays:
[1] = biological target: T1, Estrogenic Receptor of Mouse Uterus (Mus musculus, UniProt P19785); experiment: Relative affinity of the bond, estrogen receptor (tritiated estradiol displacement); assay type: binding; conditions: for Relative affinity of the bond (RAB), Oestrogen, 2 H: incubation 2 H at 0° C.; for Relative affinity of the bond (RAB), Oestrogen, 2 H / Relative affinity of the bond (RAB), Oestrogen, 6 H: RAB=100(CH)/(CX); for Relative affinity of the bond (RAB), Oestrogen, 6 H: incubation 6 H (second time); for affinity for the estrogen receptors: at the second time (incubation)
T1 construct: their uteri were removed, then homogenized at 0° C; from tissue; host or cells: uterine cytosol (105,000 g supernatant) of immature female mice
T1 sequence (P19785 1-599): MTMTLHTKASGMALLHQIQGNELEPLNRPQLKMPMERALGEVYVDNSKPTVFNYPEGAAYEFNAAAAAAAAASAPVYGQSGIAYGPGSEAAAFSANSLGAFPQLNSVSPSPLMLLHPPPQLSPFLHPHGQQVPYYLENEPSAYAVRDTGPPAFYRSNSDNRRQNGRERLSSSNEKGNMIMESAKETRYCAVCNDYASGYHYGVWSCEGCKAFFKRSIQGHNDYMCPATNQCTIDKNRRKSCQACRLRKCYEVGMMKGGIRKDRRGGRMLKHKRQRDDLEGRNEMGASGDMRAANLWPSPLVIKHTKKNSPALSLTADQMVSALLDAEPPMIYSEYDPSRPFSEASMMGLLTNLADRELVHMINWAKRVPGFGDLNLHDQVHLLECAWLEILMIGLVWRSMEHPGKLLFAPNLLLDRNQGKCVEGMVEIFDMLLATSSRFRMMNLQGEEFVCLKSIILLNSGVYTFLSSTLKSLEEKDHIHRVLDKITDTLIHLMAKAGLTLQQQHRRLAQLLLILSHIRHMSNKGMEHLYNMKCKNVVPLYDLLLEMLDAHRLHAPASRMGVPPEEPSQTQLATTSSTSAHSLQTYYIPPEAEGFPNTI
Protocol: Estrogenic Receptor of Mouse Uterus:
Impuberal female mice aged from 18 to 21 days were killed and their uteri were removed, then homogenized at 0° C. with the aid of a Potter teflon-glass in a TS buffered solution (10 mM Tris, 0.25 M saccharose, HCL pH 7.4) (1 g of tissue for 25 ml of TS). The homogenate was ultracentrifuged (105,000 g×90 min) at 0° C. and aliquots of the supernatant were incubated at 0° C. or at 25° C. for a time (t) with a constant concentration (T) of tritiated estradiol in the presence of increasing concentrations (0-1000×10^−9 M) either of cold estradiol, or of the cold product to be tested. The concentration (B) of bound tritiated estradiol was measured in each incubate by the technique of adsorption on dextran carbon.
(§1) Calculation of the Relative Affinty of the Bond
(§2) The calculation of the Relative Affinity of the Bond (RAB) was identical for all the receptors. The following 2 curves were traced; the percentage of the bound tritiated hormone [formula]
(§3) was a function of the logarithm of the concentration of the cold reference hormone and [formula]
(§4) as a function of the logarithm of the concentration of the cold product tested.
(§5) One determined the straight line of the equation [formula]
(§6) The intersections of the straight line I50 and of the curves make it possible to evaluate the concentrations of the cold reference hormone (CH) and of the tested cold product (CX) which inhibit to an extend of 50% the binding of the tritiated hormone upon the receptor. The relative affinity of the bond (RAB) of the tested product is determined by the equation

[2] = biological target: T2, Mineralocorticoid Receptor of the Rats' Kidney (Rattus norvegicus, UniProt P22199); experiment: Relative affinity of the bond, mineralocorticoid receptor (tritiated aldosterone displacement); assay type: binding; conditions: RAB=100(CH)/(CX); for Relative affinity of the bond (RAB), Mineralocorticoid, 1 H: incubation 1 H at 0° C.; for Relative affinity of the bond (RAB), Mineralocorticoid, 24 H: incubation 24 H at 0° C.
T2 construct: The kidneys were then removed, decapsulated and homogenized at 0° C; from tissue; host or cells: kidney cytosol (105,000 g supernatant) of adrenalectomised male Sprague-Dawley rats
T2 sequence (P22199 1-981): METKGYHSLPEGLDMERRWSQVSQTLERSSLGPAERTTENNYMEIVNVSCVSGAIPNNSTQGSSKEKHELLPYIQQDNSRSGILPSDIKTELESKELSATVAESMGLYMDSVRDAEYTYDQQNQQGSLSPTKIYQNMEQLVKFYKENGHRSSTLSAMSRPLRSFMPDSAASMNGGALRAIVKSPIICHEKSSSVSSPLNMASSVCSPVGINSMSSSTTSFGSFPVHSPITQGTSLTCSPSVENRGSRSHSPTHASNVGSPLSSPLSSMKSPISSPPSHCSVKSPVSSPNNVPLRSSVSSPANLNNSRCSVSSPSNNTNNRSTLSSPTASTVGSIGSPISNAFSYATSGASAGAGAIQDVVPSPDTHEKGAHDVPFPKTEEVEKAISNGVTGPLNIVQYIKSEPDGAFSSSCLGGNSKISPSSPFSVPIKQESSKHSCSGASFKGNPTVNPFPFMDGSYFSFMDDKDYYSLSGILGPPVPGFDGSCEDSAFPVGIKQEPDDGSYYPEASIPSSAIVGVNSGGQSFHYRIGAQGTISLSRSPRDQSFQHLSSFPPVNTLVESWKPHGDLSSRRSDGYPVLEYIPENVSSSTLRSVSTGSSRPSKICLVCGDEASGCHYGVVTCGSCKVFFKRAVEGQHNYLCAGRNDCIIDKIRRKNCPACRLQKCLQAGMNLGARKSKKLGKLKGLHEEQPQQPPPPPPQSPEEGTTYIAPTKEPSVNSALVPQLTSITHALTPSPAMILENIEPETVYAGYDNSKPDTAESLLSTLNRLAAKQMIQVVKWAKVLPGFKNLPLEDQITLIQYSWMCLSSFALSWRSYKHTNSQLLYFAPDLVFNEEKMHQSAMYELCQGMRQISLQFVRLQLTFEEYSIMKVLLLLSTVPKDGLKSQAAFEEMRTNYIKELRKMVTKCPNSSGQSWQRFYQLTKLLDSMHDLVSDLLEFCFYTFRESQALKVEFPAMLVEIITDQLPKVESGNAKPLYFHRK
Protocol: Mineralocorticoid Receptor of the Rats' Kidney:
Male Sprague-Dawley EOPS rats weighing 140 to 160 g were subjected to supraenalectomy 4 to 8 days earlier and were sacrificed and their kidneys were perfused in situ with 50 ml of a 10 mM Tris, 0.25 M saccharose, HCl buffer pH 7.4. The kidneys were then removed, decapsulated and homogenized at 0° C. with the aid of a Potter teflon-glass (1 g of tissue for 3 ml of buffer). The homogenate was centrifuged for 10 minutes at […] and 0° C. and then to eliminate the fixation of the tritiated aldosterone upon the glucocorticoid receptor, 11β-,17β-dihydroxy-21-methyl-Δ^1,4,6-pregnatrien-20-yn-3-one which was fixed uniquely upon the glucocorticoid receptor was added to the supernatant at a final concentration of 10^−6 M. This supernatant was ultracentrifuged at 105,000 g for 60 minutes at 0° C. and aliquots of the supernatant thus obtained were incubated at 0° C. with a constant concentration (T) of tritiated aldosterone in the presence of increasing concentrations ([…]) of the cold aldosterone or the cold product to be studied. After an incubation time (t), the concentration of bound tritiated aldosterone (B) was measured by the adsorption on dextran carbon technique.
as §1, §2, §3, §4, §5, §6

Row | Compound | Relative affinity of the bond (RAB), Oestrogen, 2 H [1] | Relative affinity of the bond (RAB), Oestrogen, 6 H [1] | Relative affinity of the bond (RAB), Mineralocorticoid, 1 H [2] | Relative affinity of the bond (RAB), Mineralocorticoid, 24 H [2] | affinity for the estrogen receptors [1]
1 | CN(C)CCN(C)C(=O)CCCCCCCCCC[C@H]1C[C@]2(C)[C@@H](O)CC[C@H]2[C@@H]2CCC3=CC(=O)CCC3=C12 [Example 19, N-[2-(dimethylamino)-ethyl]-17β-hydroxy-N-methyl-3-oxo-11β-Δ^4,9-estradiene undecanamide] | 0.3 | 0.8 | 0.7 | 0.1 | –
2 | CN(Cc1ccccc1)C(=O)CCCCCCCCCC[C@H]1C[C@]2(C)[C@@H](O)CC[C@H]2[C@@H]2CCC3=CC(=O)CCC3=C12 [Example 17, N-benzyl-17β-hydroxy-N-methyl-3-oxo-11β-Δ^4,9-estradiene undecanamide] | 0.1 | 0.01 | 2 | 0.5 | –
3 | CCCCN(C)C(=O)CCCCCCCCCC[C@H]1C[C@]2(C)[C@@H](O)CC[C@H]2[C@@H]2CCc3cc(O)ccc3[C@@H]12 [Example 13, N-Butyl-3,17β-Dihydroxy-N-Methyl-11β-Δ^1,3,5(10)-Estratriene-Undecanamide] | 0.13 | 27 | 0.19 | 0.00 | marked affinity
4 | CC(C)N(C)C(=O)CCCCCCCCCC[C@H]1C[C@]2(C)[C@@H](O)CC[C@H]2[C@@H]2CCc3cc(O)ccc3[C@@H]12 [Example 16, 3,17β-dihydroxy-N-methyl-N-isopropyl-11β-Δ^1,3,5(10)-estratriene undecanamide] | 0.6 | 60 | 0 | 0 | marked affinity

Continued, values first:

Row | Relative affinity of the bond (RAB), Oestrogen, 2 H [1] | Relative affinity of the bond (RAB), Oestrogen, 6 H [1] | Relative affinity of the bond (RAB), Mineralocorticoid, 1 H [2] | Relative affinity of the bond (RAB), Mineralocorticoid, 24 H [2] | affinity for the estrogen receptors [1] | Compound
5 | 0.01 | 0.01 | 0 | 0 | – | CC#C[C@]1(O)CC[C@H]2[C@@H]3CCC4=CC(=O)CCC4=C3[C@@H](CCCCCCCCCCC(=O)NCCCC)C[C@@]21C [Example 22, N-butyl-17β-hydroxy-3-oxo-17α-(1-propynyl)-11β-Δ^4,9-estradiene undecanamide]
6 | 0.02 | 13 | 0 | 0 | – | CCCCN(C)C(=O)CCCCCCCCCCC[C@H]1C[C@]2(C)[C@@H](O)CC[C@H]2[C@@H]2CCc3cc(O)ccc3[C@@H]12 [Example 24, N-butyl-3,17β-dihydroxy-N-methyl-11β-Δ^1,3,5(10)-estratriene dodecanamide]
7 | 0.06 | 7.4 | 0.4 | 0.5 | – | N-butyl-3,17β-dihydroxy-N-methyl-19-nor-11β-Δ^1,3,5(10)-pregnatrien-20-yn undecanamide [Example 21]

— patent publication US6790971B1, “19-Nor-steroids” (Aventis Pharma S.A., priority 1989, dated 2004)
